The values below come from ChEMBL document CHEMBL1201862, “PubChem BioAssay data set” (2004).

Calls of active or inactive are those of the source. Cut-off read from the data, not from the text of the source, for most assays here: actives have a measured EC50 and inactives only a lower limit.

Assay [1] can be described thus: inhibitors of firefly luciferase expression or activity, dose response, H4 neuroglioma cells, luminescence (AID 1990). The format is functional, cell-based.
Assay [2] in a line: Luminescence Cell-Based Dose Response HTS to Identify Inhibitors of 5'UTR Stem-Loop Driven Prion Protein mRNA Translation in H4 Neuroglioblastoma Cells. [Related pubchem assays: 1827 (Project Summary), 1813 (Primary HTS)]. Format: functional.
Assay [3] can be described thus: inhibitors of SNCA 5'UTR-driven reporter translation, confirmation, H4 neuroglioma cells, luminescence (AID 1988). Format: functional, cell-based.
Assay [4] deals with Streptococcus sp. 'group A'. Nature of the assay: growth inhibition of control SK(-) GAS strain, dose response, counter-screen for streptokinase expression inhibitor project, luminescence, kanamycin, BacTiterGlo, confirmation (AID 1900). The format is functional, organism-based.
The target of assay [5] is T1, Streptokinase A (Streptococcus pyogenes serotype M1, UniProt P10520).
T1 sequence (P10520 whole entry): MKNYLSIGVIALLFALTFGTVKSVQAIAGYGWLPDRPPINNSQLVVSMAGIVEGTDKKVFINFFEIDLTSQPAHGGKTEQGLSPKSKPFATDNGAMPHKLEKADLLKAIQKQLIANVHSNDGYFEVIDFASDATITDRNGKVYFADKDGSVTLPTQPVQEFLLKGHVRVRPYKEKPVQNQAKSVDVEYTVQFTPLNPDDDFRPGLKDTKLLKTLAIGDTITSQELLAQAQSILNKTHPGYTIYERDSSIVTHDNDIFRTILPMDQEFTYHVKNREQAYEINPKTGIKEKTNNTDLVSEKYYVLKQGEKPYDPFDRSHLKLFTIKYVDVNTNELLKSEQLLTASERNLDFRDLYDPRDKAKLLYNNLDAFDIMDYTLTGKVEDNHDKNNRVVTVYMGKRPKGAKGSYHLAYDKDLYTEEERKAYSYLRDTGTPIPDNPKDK
In words: S. pyogenes streptokinase expression inhibitors, potency, dose response, plasminogen activation absorbance, OD405 (AID 1914).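 Note: secreted streptokinase activity via plasminogen activation per viability signal from cell pellet.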 Format: functional, Streptococcus pyogenes M1 GAS.

Assay [6] concerns the target Luciferin 4-monooxygenase (Photinus pyralis, UniProt P08659). In words: firefly luciferase enzyme inhibitors, dose response, biochemical, luminescence (AID 1891).
Assay [7] in a line: Luminescence Cell-Based Dose Confirmation HTS to Identify Inhibitors of Platelet Dense Granule Release. [Related pubchem assays: 1663 (Primary HTS), 1678 (Summary of Project)]. Format: functional.
The subject of assay [8] is Streptococcus. Nature of the assay: Group A Streptococcus viability loss, dose response, counter-screen for streptokinase expression inhibitor project, luminescence, BacTiterGlo (AID 1915).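 Note: potency for reduction of bacterial viability or growth.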 The format is functional, organism-based.
The target in assay [9] is T2, Sentrin-specific protease 7 (Homo sapiens, UniProt Q9BQF6).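 Note: Luminescence-based dose-response confirmation of ultra-high-throughput screening hits, measuring inhibition of SENP7.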
T2 sequence (Q9BQF6 whole entry): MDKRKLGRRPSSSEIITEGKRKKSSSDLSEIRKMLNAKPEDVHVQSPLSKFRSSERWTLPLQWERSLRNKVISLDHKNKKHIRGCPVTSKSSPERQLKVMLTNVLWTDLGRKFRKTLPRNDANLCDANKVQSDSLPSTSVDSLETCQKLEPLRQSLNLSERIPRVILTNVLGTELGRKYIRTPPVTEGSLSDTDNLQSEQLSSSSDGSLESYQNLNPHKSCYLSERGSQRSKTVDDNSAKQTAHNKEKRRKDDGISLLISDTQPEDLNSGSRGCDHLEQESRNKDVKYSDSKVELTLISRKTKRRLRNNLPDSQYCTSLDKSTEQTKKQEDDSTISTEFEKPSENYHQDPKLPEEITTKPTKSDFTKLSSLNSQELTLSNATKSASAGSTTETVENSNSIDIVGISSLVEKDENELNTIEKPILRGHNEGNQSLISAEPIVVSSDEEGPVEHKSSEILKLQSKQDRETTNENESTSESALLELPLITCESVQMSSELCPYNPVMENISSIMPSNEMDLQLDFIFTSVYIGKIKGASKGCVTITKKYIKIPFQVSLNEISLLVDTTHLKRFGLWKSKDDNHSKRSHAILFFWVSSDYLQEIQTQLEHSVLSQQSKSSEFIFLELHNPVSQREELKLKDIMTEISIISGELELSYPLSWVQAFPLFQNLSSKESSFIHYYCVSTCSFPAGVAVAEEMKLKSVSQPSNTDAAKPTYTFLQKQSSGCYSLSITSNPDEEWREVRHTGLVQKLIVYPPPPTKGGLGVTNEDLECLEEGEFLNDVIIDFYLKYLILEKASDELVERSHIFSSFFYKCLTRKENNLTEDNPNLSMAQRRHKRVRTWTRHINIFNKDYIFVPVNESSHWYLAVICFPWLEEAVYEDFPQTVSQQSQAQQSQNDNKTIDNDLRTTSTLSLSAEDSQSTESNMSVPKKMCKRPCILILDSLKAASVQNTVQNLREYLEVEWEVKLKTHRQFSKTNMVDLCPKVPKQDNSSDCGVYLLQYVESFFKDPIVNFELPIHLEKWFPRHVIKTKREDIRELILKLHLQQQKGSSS
Format: functional.

In assay [10] the target is T3, Sentrin-specific protease 6 (Homo sapiens, UniProt Q9GZR1).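 Note: Luminescence-based dose-response confirmatory assay of SENP6 inhibition, following up an ultra-high-throughput screen.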
T3 sequence (Q9GZR1 whole entry): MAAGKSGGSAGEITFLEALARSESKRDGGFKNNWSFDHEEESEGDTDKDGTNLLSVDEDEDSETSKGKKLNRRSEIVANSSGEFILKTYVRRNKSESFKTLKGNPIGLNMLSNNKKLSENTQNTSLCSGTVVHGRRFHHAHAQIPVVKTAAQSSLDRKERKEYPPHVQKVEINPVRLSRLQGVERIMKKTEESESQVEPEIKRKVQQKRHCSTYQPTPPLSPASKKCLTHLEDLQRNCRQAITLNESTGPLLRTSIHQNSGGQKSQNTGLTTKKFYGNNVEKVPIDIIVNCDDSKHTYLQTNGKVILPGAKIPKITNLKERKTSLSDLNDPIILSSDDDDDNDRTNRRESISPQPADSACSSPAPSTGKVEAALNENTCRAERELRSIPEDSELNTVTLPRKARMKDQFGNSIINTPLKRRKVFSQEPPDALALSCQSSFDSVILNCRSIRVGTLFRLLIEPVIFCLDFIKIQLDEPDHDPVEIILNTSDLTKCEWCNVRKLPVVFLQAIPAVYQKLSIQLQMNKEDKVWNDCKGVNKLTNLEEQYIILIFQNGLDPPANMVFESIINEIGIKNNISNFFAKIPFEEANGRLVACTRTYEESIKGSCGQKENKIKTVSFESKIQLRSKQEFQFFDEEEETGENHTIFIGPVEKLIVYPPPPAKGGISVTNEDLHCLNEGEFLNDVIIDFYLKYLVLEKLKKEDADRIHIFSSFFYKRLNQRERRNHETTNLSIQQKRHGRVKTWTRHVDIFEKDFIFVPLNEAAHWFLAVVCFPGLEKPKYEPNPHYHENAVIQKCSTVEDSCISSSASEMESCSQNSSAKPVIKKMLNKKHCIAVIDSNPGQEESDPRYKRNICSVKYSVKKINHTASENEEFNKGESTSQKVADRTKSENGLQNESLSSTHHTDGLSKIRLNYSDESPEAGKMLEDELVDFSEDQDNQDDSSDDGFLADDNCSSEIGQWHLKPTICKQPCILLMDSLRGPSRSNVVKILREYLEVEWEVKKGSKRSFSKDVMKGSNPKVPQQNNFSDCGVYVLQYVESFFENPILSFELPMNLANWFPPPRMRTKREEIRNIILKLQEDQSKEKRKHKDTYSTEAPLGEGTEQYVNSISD
Format: functional.

Assay [11] addresses T4, Sentrin-specific protease 8 (Homo sapiens, UniProt Q96LD8).
T4 sequence (Q96LD8 whole entry): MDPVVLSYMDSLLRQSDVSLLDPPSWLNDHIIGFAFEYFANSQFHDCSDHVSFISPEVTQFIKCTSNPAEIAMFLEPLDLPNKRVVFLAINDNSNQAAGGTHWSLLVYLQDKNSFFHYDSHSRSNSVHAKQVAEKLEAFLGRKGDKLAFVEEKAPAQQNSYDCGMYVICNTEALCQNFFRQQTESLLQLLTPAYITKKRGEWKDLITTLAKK
Format: functional.

Assay [12] concerns the target T5, Microphthalmia-associated transcription factor (Homo sapiens, UniProt O75030).
T5 sequence (O75030 whole entry): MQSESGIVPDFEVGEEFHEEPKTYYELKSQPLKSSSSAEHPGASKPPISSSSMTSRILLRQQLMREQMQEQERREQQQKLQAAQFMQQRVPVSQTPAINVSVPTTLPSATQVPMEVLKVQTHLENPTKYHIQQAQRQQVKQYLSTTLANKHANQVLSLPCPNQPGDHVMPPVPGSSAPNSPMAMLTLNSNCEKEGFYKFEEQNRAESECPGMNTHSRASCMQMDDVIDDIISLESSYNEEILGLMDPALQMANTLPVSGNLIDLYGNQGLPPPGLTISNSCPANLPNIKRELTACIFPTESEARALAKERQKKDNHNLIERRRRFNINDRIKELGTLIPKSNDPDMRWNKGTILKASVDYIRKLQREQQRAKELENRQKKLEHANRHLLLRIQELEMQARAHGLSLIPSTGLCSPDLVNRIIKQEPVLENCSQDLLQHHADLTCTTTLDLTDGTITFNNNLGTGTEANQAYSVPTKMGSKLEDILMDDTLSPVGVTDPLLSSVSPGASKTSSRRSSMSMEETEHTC
In words: TRPM1 promoter luciferase signal decrease, dose response, MITF inhibitor project, cell-based, SK-MEL-5, cherry-picked, set 3 (AID 493073).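 Note: SK-MEL-5 melanoma cells with luciferase driven by the MITF target TRPM1 promoter.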 The format is functional.

Assay [13] concerns the target Glyceraldehyde-3-phosphate dehydrogenase (Homo sapiens, UniProt P04406).
Assay [14] deals with H9c2. In words: cells. The format is functional, cell-based. The settings on record: Rattus norvegicus, H9c2, Myocardium.

Chain of Glyceraldehyde-3-phosphate dehydrogenase (P04406 whole entry): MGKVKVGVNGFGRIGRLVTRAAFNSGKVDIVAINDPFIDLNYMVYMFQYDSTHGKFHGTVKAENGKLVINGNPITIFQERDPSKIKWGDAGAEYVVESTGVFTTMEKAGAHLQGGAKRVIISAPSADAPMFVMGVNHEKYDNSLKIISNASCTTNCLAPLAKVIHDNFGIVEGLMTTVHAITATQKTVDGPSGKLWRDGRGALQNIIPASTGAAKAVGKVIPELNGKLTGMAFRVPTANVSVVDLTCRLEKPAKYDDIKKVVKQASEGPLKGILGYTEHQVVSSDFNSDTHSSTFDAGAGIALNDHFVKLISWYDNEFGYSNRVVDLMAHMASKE
Chain of Luciferin 4-monooxygenase (P08659 whole entry): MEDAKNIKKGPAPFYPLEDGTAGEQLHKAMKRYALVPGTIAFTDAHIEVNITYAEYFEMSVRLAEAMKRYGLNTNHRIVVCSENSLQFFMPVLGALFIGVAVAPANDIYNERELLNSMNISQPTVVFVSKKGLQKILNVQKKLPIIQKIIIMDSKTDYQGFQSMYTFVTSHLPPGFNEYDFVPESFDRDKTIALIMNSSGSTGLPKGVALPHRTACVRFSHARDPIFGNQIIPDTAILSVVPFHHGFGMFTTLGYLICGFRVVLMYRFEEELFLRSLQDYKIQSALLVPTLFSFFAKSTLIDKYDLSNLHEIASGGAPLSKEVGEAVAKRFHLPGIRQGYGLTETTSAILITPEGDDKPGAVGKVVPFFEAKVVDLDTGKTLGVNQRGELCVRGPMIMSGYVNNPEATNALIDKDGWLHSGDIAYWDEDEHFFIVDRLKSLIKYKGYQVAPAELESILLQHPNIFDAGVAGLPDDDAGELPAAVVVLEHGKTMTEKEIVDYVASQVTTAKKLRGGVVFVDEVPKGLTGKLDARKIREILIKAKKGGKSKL

Consider `CC(NC(=O)COC(=O)c1ccc2c(c1)S(=O)(=O)N=C1CCCCCN12)C12CC3CC(CC(C3)C1)C2` (stereo unspecified), for which the EC50 in assay [1] is > 120 µM (not active); in assay [2] it was > 120 µM (not active); in assay [3] it was 15.5 µM (active).

For the compound `O=C(CCc1nnc(-c2ccc(-c3ccccc3)cc2)o1)NCCc1ccccn1`, the 50% effective concentration (EC50) in assay [2] was 21.4 µM (active).

For the compound `CCOc1ccc(-c2nc3n(c(=O)c2C#N)CCCS3)cc1`, the concentration giving a half-maximal response (EC50) in assay [4] was 11.9 µM (active); in [5] it was > 150 µM (not active); in assay [6], > 112 µM (not active); in assay [7] it was > 112 µM (not active); in assay [8] it was 148 µM (active).

Turning to `Cn1c(/C(C#N)=C/c2ccc(O)cc2)nc2ccccc21`, the IC50 in [9] is 12 µM (active); in [10] it was 28.3 µM (active); in assay [11], 45 µM (active).

As for `Cc1onc(-c2ccccc2Cl)c1C(=O)NC(=S)Nc1ccc(C(C)(C)C)cc1`, the EC50 in assay [1] was > 120 µM (not active); in assay [2] it was > 120 µM (not active); in assay [3], 107 µM (active).

As to `COC(=O)c1ccc(C2C(C(=O)c3ccc4c(c3)CC(C)O4)=C(O)C(=O)N2Cc2ccncc2)cc1` (stereo unspecified), the EC50 in [6] and in assay [7] was > 112 µM (not active) each time.

Take `Cc1c(CCC(=O)N2CCC[C@H]2C(=O)O)c(=O)oc2c(C)c3oc4c(c3cc12)CCCC4`: the EC50 was 15.9 µM (active) in [1], 16.2 µM (active) in assay [2] and 14 µM (active) in assay [3].

On to `COc1cccc(-n2nc3c(S)nnc(C)c3c2C)c1`, for which the concentration for a half-maximal effect (EC50) is 16.2 µM (active) in [1], > 120 µM (not active) in [2] and > 120 µM (not active) in [3].

Turning to `Cc1ccc(NC(=O)CNc2cc(S(=O)(=O)N3CCOCC3)ccc2NCC2CCCO2)cc1F` (stereo unspecified), the 50% effective concentration (EC50) in assay [6] and in assay [7] was > 112 µM (not active) in each case.

Consider `COc1ccccc1N1C(=O)N(C(C)=O)C2C1Nc1ccccc1N2C` (stereo unspecified), for which, in [12], the AC50 is 10.5 µM (active).

As for `CCC(c1nnnn1Cc1ccccc1)N(Cc1ccco1)Cc1cc2cc(OC)ccc2nc1O` (stereo unspecified), the EC50 in assay [6] and in [7] was > 112 µM (not active) throughout.

`NC(=O)c1nsc(C(=O)N(CC(=O)NC2CCCC2)c2cnc3ccccc3c2)c1N`: the results for the 50% effective concentration (EC50) in assay [6] and in assay [7] were > 112 µM (not active) and 17.1 µM (active), respectively.

Consider `COc1cc2c(cc1OC)C(SC)=NC1(CCCC1)C2`, for which the half-maximal activity concentration (AC50) in assay [12] is 9.44 µM (active).

As to `COc1ccc(NC(=O)CNC(=O)c2ccc([N+](=O)[O-])cc2)cc1`, the concentration for a half-maximal effect (EC50) in assay [6] was > 112 µM (not active); in assay [7], 15.4 µM (active).

Take `Cc1ccc(NC(=O)c2cc(S(=O)(=O)N3CCOCC3)cn2C)cc1F`: the EC50 in [6] and in assay [7] was > 112 µM (not active) each time.

With `COc1ccc(Cl)cc1S(=O)(=O)Nc1cnc2ccccc2c1`, the IC50 in [13] was > 10 µM (inconclusive).

In the case of `Cc1ccc(CNc2cc(-c3nn4c(C)nnc4s3)ccc2C)s1`, the EC50 was 9.69 µM (active) in assay [1], 56.1 µM (active) in assay [2] and 22.5 µM (active) in assay [3].

As to `Nc1ccc(-c2cc3ccccc3c(=O)o2)cc1`, the AC50 in assay [12] is 0.293 µM (active).

On to `CCOC(=O)C1=C(NC(=O)c2oc3ccccc3c2COC)Nc2ccccc2N=C1C`, for which the IC50 in assay [14] is > 79 µM (inactive).

On to `COc1cccc(/C=N/NC(=O)N/N=C/c2cccc(OC)c2O)c1O`, for which the EC50 was 15.5 µM (active) in assay [1], > 120 µM (not active) in [2] and 9.36 µM (active) in assay [3].

Take `Cc1ccc(C)n1-c1ccc(S(N)(=O)=O)cc1`: the IC50 in assay [13] is > 100 µM (not active).

Consider `O=C(NCCCO)c1cc(-c2cc(F)c(Cl)cc2Cl)n[nH]1`, for which, in assay [13], the IC50 was > 10 µM (inconclusive).
